Earlier results as cited in US12295956B2, “Anti-viral compositions” (Calladine Pharmaceuticals Limited, priority 2018, dated 2025).

Assays:
[1] = gentle heating to a pourable hot liquid

Question: For Nc1nc2c(ncn2COCCO)c(=O)[nH]1 [Aciclovir, aciclovir], which “solubility in hydrophobic solvent systems” value (hydrophobic solvent systems) is on record?
Answer: almost totally insoluble

Question: And the solubility in water (water)?
Answer: poor solubility in water

Question: And the heat stability [1]?
Answer: relatively heat stable
